# Patent US20240327439A1, “PHARMACOLOGICAL AGENTS FOR PREVENTING AND TREATING CATARACTS AND PRESBYOPIA EYE DISEASES” (Plex Pharmaceuticals, Inc., priority 2021, published 2024)
# Tested on: Bovine lens lysates
# Assay: Prevention of UVC/H2O2-induced aggregation (opacification) of bovine lens extracts
# Type: biochemical
# Conditions: bovine lens lysates 2 mg/ml, various concentrations of compound, UV-irradiated, vs vehicle 0.5% DMSO
# Procedure: Bovine lens lysates (2 mg/ml, 50 μl) were incubated with various concentrations of CAP1160 (structure shown below) or a vehicle (0.5% DMSO), and then left unexposed (no exposure) or exposed to UV (UV-irradiated). At various time points, wells-containing bovine lens lysates were pictured and the corresponding absorbance at 600 nm (A600) was measured. Representative brightfield images of wells taken 7 min after initial UV exposure (FIG. 1A) and corresponding A600 (FIG. 1B).
compound,measurement,value
Cc1ccc(C(=O)c2cc(O)c(O)c([N+](=O)[O-])c2)cc1 [CAP1160],"opacification of bovine lens protein lysates induced by UV irradiation (absorbance at 600 nm, brightfield images)","delays, in a dose-dependent manner, the opacification"
